# Assay results from PMC3257202, “Xylan oligosaccharides and cellobiohydrolase I (TrCel7A) interaction and effect on activity” (Biotechnology for Biofuels, 2011).
# Tests used:
# TrCel7A core = biological target: T1, TrCel7A core (Trichoderma reesei, UniProt P62694); assay: isothermal titration calorimetry; conditions: 30°C, binding constant on a molar concentration scale (unit not given)
# T1 construct: gene cbh1; GH7 catalytic domain only, first 436 residues after the 17-residue signal peptide; linker and C-terminal family 1 CBM removed; recombinant from Aspergillus oryzae, purified
# T1 sequence (P62694 18-453): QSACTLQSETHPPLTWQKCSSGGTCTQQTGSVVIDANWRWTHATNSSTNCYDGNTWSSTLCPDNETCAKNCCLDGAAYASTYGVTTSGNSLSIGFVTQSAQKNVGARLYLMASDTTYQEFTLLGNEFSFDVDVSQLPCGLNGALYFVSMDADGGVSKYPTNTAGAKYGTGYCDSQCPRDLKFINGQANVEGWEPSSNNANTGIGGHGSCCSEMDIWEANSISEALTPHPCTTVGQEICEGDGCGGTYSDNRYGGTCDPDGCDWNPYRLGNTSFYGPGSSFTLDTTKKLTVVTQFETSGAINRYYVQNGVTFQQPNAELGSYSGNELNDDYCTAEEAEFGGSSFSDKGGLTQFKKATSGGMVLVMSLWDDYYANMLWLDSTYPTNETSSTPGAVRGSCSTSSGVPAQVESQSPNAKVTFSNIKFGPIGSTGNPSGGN
# Text: isothermal titration calorimetry on TrCel7A core
# TrCel7A = biological target: T2, TrCel7A (Trichoderma reesei, UniProt P62694); assay: isothermal titration calorimetry; conditions: 30°C; binding constant on a molar concentration scale (unit not given)
# T2 construct: gene cbh1; full-length secreted enzyme (GH7 catalytic domain, glycosylated linker, family 1 CBM), 17-residue signal peptide removed, 52 kDa; recombinant from Aspergillus oryzae, purified
# T2 sequence (P62694 18-513): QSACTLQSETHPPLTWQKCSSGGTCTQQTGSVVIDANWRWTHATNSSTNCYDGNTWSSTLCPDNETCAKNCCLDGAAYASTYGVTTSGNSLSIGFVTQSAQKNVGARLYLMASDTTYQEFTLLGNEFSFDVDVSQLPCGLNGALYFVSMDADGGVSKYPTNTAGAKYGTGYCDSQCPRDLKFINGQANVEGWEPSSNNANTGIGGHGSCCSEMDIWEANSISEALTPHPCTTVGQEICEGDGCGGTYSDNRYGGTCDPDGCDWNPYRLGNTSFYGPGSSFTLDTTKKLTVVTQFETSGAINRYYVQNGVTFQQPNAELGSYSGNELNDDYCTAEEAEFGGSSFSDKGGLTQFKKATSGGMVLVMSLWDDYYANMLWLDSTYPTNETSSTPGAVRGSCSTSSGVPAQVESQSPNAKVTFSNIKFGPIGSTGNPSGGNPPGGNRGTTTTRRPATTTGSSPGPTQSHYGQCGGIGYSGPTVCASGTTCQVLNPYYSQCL
# Text: isothermal titration calorimetry on TrCel7A
Molecule,TrCel7A core (K) (TrCel7A core),"TrCel7A core (K) (TrCel7A core; compound identity contradictory in print (name hexaose, formula (xyl)5))",TrCel7A (K) (TrCel7A)
OC1OC[C@@H](O[C@@H]2OC[C@@H](O[C@@H]3OC[C@@H](O)[C@H](O)[C@H]3O)[C@H](O)[C@H]2O)[C@H](O)[C@H]1O (some centres unmarked) [Xylotriose],> 1.0 × 10^3,–,–
OC1OC[C@@H](O[C@@H]2OC[C@@H](O[C@@H]3OC[C@@H](O[C@@H]4OC[C@@H](O)[C@H](O)[C@H]4O)[C@H](O)[C@H]3O)[C@H](O)[C@H]2O)[C@H](O)[C@H]1O (some centres unmarked) [Xylotetraose],2.97 × 10^3,–,–
Xylohexaose (xyl)5,–,3.44 × 10^3,–
OC1OC[C@@H](O[C@@H]2OC[C@@H](O[C@@H]3OC[C@@H](O[C@@H]4OC[C@@H](O[C@@H]5OC[C@@H](O[C@@H]6OC[C@@H](O[C@@H]7OC[C@@H](O)[C@H](O)[C@H]7O)[C@H](O)[C@H]6O)[C@H](O)[C@H]5O)[C@H](O)[C@H]4O)[C@H](O)[C@H]3O)[C@H](O)[C@H]2O)[C@H](O)[C@H]1O (some centres unmarked) [Xyloheptaose],7.43 × 10^3,–,5.76 × 10^3
